Results taken from patent publication US11926627B1 (priority 2023, dated 2024).
≈ marks a conversion by molar mass, not a printed value.

Test system: multidrug-resistant (MDR) strains of Mycobacterium tuberculosis
Test: microbe, parasite or virus in culture
Assay type: cell-based
Conditions: 192 h, read-out: Antitubercular activity against Mycobacterium tuberculosis MDR (MIC)

SMILES: COC(=O)c1c(C(=O)OC)c2ccc3cc(C)ccc3n2c1C(=O)c1ccc(F)cc1 [7-METHYL-QUIN1, Dimethyl 1-(4-fluorobenzoyl)-7-methylpyrrolo[1,2-α]quinoline-2,3-dicarboxylate]
- MIC: 8 µg/mL (≈ 19.1 µM)

SMILES: COC(=O)c1c(C(=O)OC)c2ccc3cc(C)ccc3n2c1C(=O)c1ccc(Br)cc1 [7-METHYL-QUIN2, Dimethyl 1-(4-bromobenzoyl)-7-methylpyrrolo[1,2-α]quinoline-2,3-dicarboxylate]
- MIC: 16 µg/mL (≈ 33.3 µM)

SMILES: COC(=O)c1c(C(=O)OC)c2ccc3cc(C)ccc3n2c1C(=O)c1ccc(Cl)cc1 [7-METHYL-QUIN4, Dimethyl 1-(4-chlorobenzoyl)-7-methylpyrrolo[1,2-α]quinoline-2,3-dicarboxylate]
- MIC: 4 µg/mL (≈ 9.18 µM)

SMILES: CCOC(=O)c1cc(C(=O)c2ccc(Cl)cc2)n2c1ccc1cc(C)ccc12 [7-METHYL-QUIN3, Ethyl 1-(4-chlorobenzoyl)-7-methylpyrrolo[1,2-α]quinoline-3-carboxylate]
- MIC: 4 µg/mL (≈ 10.2 µM)
